Measured values taken from a melting point compilation (Tetko et al.; mined from patent text by program, amines drawn as free bases though some values may be those of a salt).
Residues, ends and D or L forms follow the SMILES beside them. *: point of attachment. Cbz = O=C(OCc1ccccc1)*; NHPr = CCCN*

melting point	Compound
149 to 150 °C	CC(C)n1nc(-c2c(-c3ccccc3)nn3ccc(OCCN4CCCC4)cc23)ccc1=O
73 to 74 °C	CC(C)(C)OC(=O)NCc1ccc(CN2CCC(c3ccccc3)CC2)cc1
105 to 106 °C	CC(C)(C)NC(=O)[C@@H]1Cc2ccccc2CN1C(=O)OCc1ccccc1
166 to 167 °C	Cn1ccc2c1CC(c1ccccc1)CC2=O (stereo unspecified)
177 to 179 °C	O=C(O)c1ccccc1Sc1cccc(OCc2ccc3cc(Cl)ccc3n2)c1
97 to 99 °C	Cc1nccn1CCCC1CCc2onc(-c3ccccc3)c2C1=O (stereo unspecified)
65.5 to 66.5 °C	CCCC(O)c1cc2c(cc1C)OCO2 (stereo unspecified)
235 to 237 °C	COc1cc2nc(N)nc(-c3ccccc3OC(F)(F)F)c2cc1OC
254 to 255 °C	O=[N+]([O-])c1c[nH]c(-c2c(Cl)cc(C(F)(F)F)cc2Cl)n1
186 to 188 °C	CNc1cc(N2CCC(c3ccccc3)CC2)nc(C)n1
129 to 131 °C	CC(=NNC(=S)N1CCCCCC1)c1ccc2ccccc2n1
58 °C	CC(C)(C)c1ncc(C(=C(Cl)Cl)C(F)(F)F)cn1
176 to 178 °C	COc1ccc2c(c1CC1CCCC1)CC[N+]([O-])=C2Cc1c(Cl)cncc1Cl
177 to 179 °C	CC1CCCN(S(=O)(=O)c2cc(Cl)cc(C(=O)O)c2)C1 (stereo unspecified)
153 to 154 °C	O=C1N=c2cccc(OCCN3CCC(Cc4ccccc4)CC3)c2=N1
147 to 149 °C	O=C(O)c1cn(CCO)nc1[N+](=O)[O-]
92 °C	Oc1c(CN2CCCC2)cc(Nc2ccnc3cc(Cl)ccc23)cc1CN1CCCC1
172 to 174 °C	O=C1CC2(CN1)CC(O)c1cc(Cl)ccc12 (stereo unspecified)
84 to 85 °C	Cc1nn(-c2ccccn2)cc1COc1ccc(C=O)cc1
148 °C	O=S1(=O)c2cccc3cccc(c23)N1CCN1CCN(c2noc3ccccc23)CC1
129 to 131 °C	CN1CCC(=O)C(=C(c2ccccc2)c2ccccc2)C1
128 to 130 °C	OC1CSC(Sc2ccc(C(F)(F)F)cc2)C(O)C1O (stereo unspecified)
143 to 144 °C	CC(C)CCSc1cc(C(=O)O)cc(N=Nc2cc(C(=O)O)cc(SCCC(C)C)c2C(=O)c2ccccc2)c1C(=O)c1ccccc1
128 to 129 °C	CC(C)Nc1nccc(C#Cc2ccc(F)cc2)n1

melting point	Compound
143 to 144 °C	Cc1nnc(-c2ccc3occ(-c4ccc(SCF)cc4)c3c2)o1
110 to 111 °C	N#Cc1ccc(C(=O)OC2CCN(Cc3ccccc3)CC2)cc1
274 °C	Cc1ccc2c(c1)c(N1CCNCC1)c(C#N)c(=O)n2C
122 °C	CCCC(C)(O)C(=O)Nc1ccnc(C(=O)OC)c1 (stereo unspecified)
200 °C	CC(C)OCC(=O)CC1c2ccccc2C(=O)N1c1ccc2ccc(Cl)nc2n1 (stereo unspecified)
228 to 230 °C	Cn1c2ccc(C=O)cc2c2nc3ccccc3nc21
71.6 °C	C#CCOc1cc(Oc2cccc(Cl)c2)ncn1
97 to 97.5 °C	CC(C)C(=O)CC(=O)c1ccc(C(=O)CC(=O)C(C)C)cc1
260 to 264 °C	Nc1ncnc2nc(-c3cccc(Cl)c3)cnc12
133 to 135 °C	COC(=O)CC(NC(=O)C(CSC(C)=O)Cc1ccccc1)c1ccc2ccccc2c1 (stereo unspecified)
44 to 45 °C	CCCCCCCCCCN(O)C(=O)N(C)C
294 °C	Cc1nc2sccn2c1C1=NNC(=O)OC1
92 to 102 °C	Cc1noc(NS(=O)(=O)c2ccccc2-c2ccc(-c3ncco3)cc2CN(C)C(=O)C2CC2)c1C
303 to 306 °C	COC(=O)n1c(=O)n(C(C)C)c2nc(=O)[nH]cc21
63 to 65 °C	CCOC(=O)c1cc(OCc2ccccc2)cc(OCc2ccccc2)c1
125 to 126 °C	COc1ccc(C)c(NC(=O)C(C)=Cc2ccccc2)c1
160 °C	O=C(Nc1cccnc1Cl)c1ccccc1[N+](=O)[O-]
82 to 84 °C	COc1cc(OC)nc(Cc2ccccc2N)n1
121 to 123 °C	COP(=O)(Cc1cc(C)c(CP(=O)(OC)OC)cc1C)OC
188 to 190 °C	CCOc1cc2c3c(c4cc(OCC)c(OCC)cc4c2cc1OCC)C(=O)C=CC3=O
> 120 °C	NS(=O)c1ncnc2c1ncn2C1OC(CO)C(O)C1O (stereo unspecified)
81 °C	CCCCCC[Si]1(CCCCCC)C([Si](C)(C)C)=C(c2ccccc2)C(c2ccccc2)=C1[Si](C)(C)C
238 to 239 °C	C=Cn1cc(C(=O)O)c(=O)c2ccc(N3CCN(C)CC3)nc21
85 to 86 °C	COC(=O)c1cc(O)cc(OC)c1

melting point	Compound
159 to 165 °C	Cc1ccc(O)c(C)c1C=O
191 to 192 °C	O=C1NCCNN1c1cc(C(F)(F)F)cc(Cl)n1
86 to 88 °C	CC1(C)CC(N)c2cc(OCc3ccccc3)ccc2O1 (stereo unspecified)
76 to 79 °C	CC(C)(COS(N)(=O)=O)Oc1ccc(Cl)cc1
223 to 225 °C	OCc1cc(O)ccc1/C=C/c1ccc(O)cc1
156 to 159 °C	C/C(=C(\C#N)C(N)=S)N1CCC(C)CC1
278 to 280 °C	CCOC(=O)/C=C/c1cc(F)c2ncc(C(=O)NCc3ccc(Cl)cc3)c(O)c2c1
176 to 179 °C	COc1ccc(/C=C/CNc2cccc(-c3ccnc4c(C(=O)c5cccs5)cnn34)c2)cc1
180 to 181 °C	OC1CCCc2nc3sccc3c(NCc3ccccc3)c21 (stereo unspecified)
83 to 87 °C	COc1cccc(-c2n[nH]c(-c3ccccc3COC(C)=O)n2)c1
245 °C	CCc1ccc(COc2ccc(CC(NC(=O)c3cn4ccc(-c5ccc(Cl)cc5)cc4n3)C(=O)O)cc2)cc1 (stereo unspecified)
153 to 154 °C	COc1ccc(Br)cc1-c1cc(-c2ccc(Br)cc2)no1
335 to 345 °C	O=C1NC(=O)c2c1cc(-c1ccccc1)c1[nH]c3ccc(O)cc3c21
178 to 179 °C	COc1cc2c(cc1C(O)COc1ccc(C(=O)O)c(O)c1)C(C)(C)CCC2(C)C (stereo unspecified)
107 to 109 °C	CC(C)N(CCCC(=NNC(N)=S)c1ccccc1)C(=O)c1ccccc1
162 to 164 °C	COP(=O)(OC)[C@H](C)NC(=O)[C@H](C)NC(=O)[C@H](C)NC(=O)CNC(=O)OCc1ccccc1
211 to 213 °C	NC(=O)CNC(=O)c1cc(Cl)nc(Cl)c1
168 to 181 °C	O=C(Nc1nc(-c2ccco2)c(C(=O)C2CCCC2)s1)c1ccncc1
157 to 159 °C	COc1cc(C(C)C)c2c(c1)S(=O)(=O)N(CBr)C2=O
60 to 64 °C	CCOC(=O)[C@H](CC(C)C)NC(=O)[C@@H]1CCCN1C(=O)OCc1ccccc1
133 to 135 °C	CC(=O)NCc1ccc(CO)cc1[N+](=O)[O-]
334 to 357 °C	CC(=O)Nc1cc(O)c(C(=O)O)cc1NC(=N)N
135 to 137 °C	CCCCCCCC(=O)Nc1cc(Cc2c(Cl)cccc2Cl)nc(Nc2ccc(C#N)cc2)n1
60 °C	O=C(c1ccc(F)cc1)C1CCN(CCn2c(=O)[nH]c3ncccc3c2=O)CC1

melting point	Compound
97 to 98 °C	COc1ccc(CC(=O)c2ccc(OCc3ccccc3)cc2O)cc1
116 to 117 °C	O=C1C=C(c2ccc(C(F)(F)F)cc2C(F)(F)F)CO1
205 to 206 °C	NC(=O)CNC(=O)c1cccc(-c2ncnc3cc(Cc4cccc(C(F)(F)F)c4)sc23)c1
173 to 174 °C	CC(C)OC(=O)c1ccc2c(c1)ncn2-c1cccc(N2CCN(C)CC2)c1
150 to 152 °C	COC(=O)C1Cc2c([nH]c3ccccc23)CN1C(=S)Sc1cccs1 (stereo unspecified)
215 to 216 °C	COc1ccc(Cn2c(=O)ccc3cnc(Nc4ccccc4)nc32)cc1
214 to 217 °C	Nc1ncc2c(n1)CCC(=O)C2
245 to 248 °C	NC(=O)c1cc(=O)c(-c2ccccc2)co1
213 to 214 °C	CN1C(=O)Cn2cc(C(=O)NCc3ccc(Cl)cc3)c(=O)c3cc(CN4CCOCC4)cc1c32
83 to 86 °C	CCCN(CCC)CCOc1ccc(Cn2c(-c3ccc(O)cc3)c(C)c3cc(O)ccc32)cc1
117 to 120 °C	CCCNC(=O)C1CCCN1C(=O)C(C)NC(=O)OCc1ccccc1 (stereo not drawn) (Cbz-Ala-Pro-NHPr; configuration not given here)
94 to 96 °C	CC(C)n1c(CC[C@@H](O)C[C@@H](O)CC(=O)OC(C)(C)C)c(-c2ccc(F)cc2)c(-c2ccccc2)c1C(N)=O
291 to 293 °C	CC(C)(C)c1cc(C(=O)Nc2nc(C(=O)O)cs2)cc(C(C)(C)C)c1O
195 to 198 °C	CN1N=C2c3ccccc3CCC2C1c1ccncc1 (stereo unspecified)
178 to 179 °C	Cc1ccccc1C(CCC(=O)O)Oc1cc(OCc2ccsc2)ccc1-c1nc(C(=O)O)co1 (racemic)
118 to 119 °C	S=C=Nc1ccc2nc(Oc3ccccc3)sc2c1
142 to 144 °C	CNC(=O)C(Cc1ccc(OC)cc1)NC(=O)C(=CCC(=O)OC)CC(C)C (stereo unspecified)
174 to 175 °C	CCCOc1ccc(CO)cc1-c1nc2c(CCC)nn(C)c2c(=O)[nH]1
201 to 202 °C	Cc1nc(-c2ccccc2)ncc1CN1CCN(c2ccc(O)cc2)CC1
102 to 103 °C	CC[C@H](C)C(=O)O[C@H]1C[C@@H](C)C=C2C=C[C@H](C)[C@H](CCC(=O)C[C@@H](O)CC(=O)O)[C@H]21
198 to 199 °C	COc1cc(C2C3=C(COC3=O)Nc3ccc4cc(C)[nH]c4c32)ccc1F (stereo unspecified)
277 °C	COc1ccc(CSc2cnc(O)nc2O)cc1
181 to 182 °C	CCOC(=O)c1ccc(NC(=O)c2ccc3c(c2)OCC(C)(C)CO3)cc1
198 to 199 °C	COC(=O)c1cccc(Cn2c(C(=O)NC(N)=S)cc3cc(C)cc(C)c32)c1

Compound	melting point
COc1ccc2c3c([nH]c2c1)CCC(N(C)C)C3 (stereo unspecified)	100 to 105 °C
C=CCNC(=O)O[C@H]1C[C@@H](C(=O)OC)[C@]2(C)CC[C@H]3C(=O)O[C@H](c4ccoc4)C[C@]3(C)[C@H]2C1=O	196 to 199 °C
CN1C(=O)[C@H](NC(=O)/C=C/c2cccc(Cl)c2)N=C(c2ccccc2)c2ccccc21	229 to 231 °C
CC(C)(C)c1ccc(C(=O)NP(N)(N)=O)cc1	232 °C
O=c1[nH]c2c(Cl)cc(Cl)cc2c(=O)n1CCCN1CC=C(c2ccc(Cl)cc2)CC1	197 to 199 °C
